# Laboratory results: patent publication US8980874B2, “Method and composition for treating diabetic ketoacidosis” (Midwestern University, priority 2009, dated 2015)
# Where a name gives a salt, the structure may show the parent alone. Non-standard residues stand in square brackets, D forms with d. Residues, ends and D or L forms follow the SMILES beside them.
# Legend:
# rat model of DKA [1] = experiment: Plasma ET-1 level (Enzyme Immunometric Assay) in diabetic ketoacidosis rats; type: in vivo; settings: for plasma ET-1, Day 4 (pre tx): baseline before treatment; for plasma ET-1, Day 4 (pre tx) / plasma ET-1, Day 4 (end of tx): mean±SEM; for effect of treatment on plasma ET-1 level: day 4, result in words (Table 4, FIG. 9); for plasma ET-1, Day 4 (end of tx): saline+insulin, alone or after bolus BMS-182874 9 mg/kg or BQ123 1 mg/kg
# Protocol: In order to analyze the change in plasma ET-1 level during the treatment, blood samples were withdrawn through right femoral artery of the rats before and at the end of experiment and were collected into chilled EDTA tubes (1 mg/mL blood) containing aprotinin (500 KIU/mL of blood). The blood samples were centrifuged at 1,600×g for 15 minutes at 0° C. and plasma separated was stored at −70° C. until analyzed. ET-1 level was estimated using Assay's Design's Endothelin-1 Enzyme Immunometric Assay Kit (Nowicki et al., 2005; Brondani et al., 2007). Briefly, plasma samples and standards were added to wells coated with a monoclonal antibody specific for ET-1. The plate then was washed after 24 hours of incubation, leaving only bound ET-1 on the plate. A solution of horseradish peroxidase (HRP) labeled monoclonal antibody to ET-1 then was added, which binds to the ET-1 captured on the plate. The plate was incubated for 30 min, then washed to remove excess HRP labeled antibody. A solution of 3,3′,5,5′-tetramethylbenzidine (TMB) substrate was added, which generates a blue color when catalyzed by the HRP. Hydrochloric acid (1N) was added to stop the substrate reaction, and the resulting yellow color was read at 450 nm using DTX 800 Multimode detector. The data was analyzed with Multimode Detection Software (Beckman Coulter, Inc., Fullerton, Calif.). The measured optical density is directly proportional to the concentration of ET-1 in either standards/plasma. Blood samples from all the groups were collected before the start and at end of the treatment.
# (§1) Group 4: Diabetic saline/insulin treated (D-Saline+insulin treated): Rats were injected with streptozotocin in citrate buffer (150 mg/kg ip) to induce diabetes and ketoacidosis. On day three, rats were treated with 1.5 U/kg regular insulin (Humulin® R (Regular human insulin, rDNA origin). On day four, saline and insulin treatment was carried out. Rats were infused via cannulated femoral vein saline, 0.9% NaCl at 80 mL/kg/hr and 1.5 U/kg/hr regular insulin for one hour. During the next two through four hours, rats were infused with saline, 0.9% NaCl at 40 mL/kg/hr and 1.5 U/kg/hr regular insulin (Yuen et al., 2008).
# (§2) Group 5: Diabetic BMS-182874/saline/insulin treated (D-BMS+Saline+insulin treated): Rats were injected with streptozotocin in citrate buffer (150 mg/kg ip) to induce diabetes and ketoacidosis. On day three, rats were treated with 1.5 U/kg regular insulin. On day four, rats were administered a bolus dose of selective ETA receptor antagonist, BMS-182874 (9 mg/kg), then saline and insulin treatment was carried out. Rats were infused via cannulated femoral vein saline, 0.9% NaCl at 80 mL/kg/hr and 1.5 U/kg/hr regular insulin for one hour. During the next two through four hours rats were infused with saline, 0.9% NaCl at 40 mL/kg/hr and 1.5 U/kg/hr regular insulin.
# (§3) Group 6: Diabetic BQ123/saline/insulin treated (D-BQ+saline+insulin treated): Same as above for Group 5, except BQ123 (1 mg/kg body weight) is used as a substitute for BMS-182874 (9 mg/kg).
# (§4) Data are presented as mean±SEM. The significance of differences was estimated by one-way analysis of variance (intra group comparison with respect to base line data) and two-way analysis of variance (inter group comparison with respect to corresponding time points from each groups) followed by application of the Dunnett's Multiple Comparisons and Bonferroni test respectively. A P value of less than 0.05 was considered to be significant. The statistical analysis was processed with GraphPad Prism software Version 5.00.
# rat model of DKA [2] = experiment: Brain and lung water content in diabetic ketoacidosis rats; type: in vivo; settings: end of treatment; for effect on lung water content (pulmonary edema): FIG. 7, result in words; for effect on brain water content (cerebral edema): FIG. 8, result in words
# Protocol: Water content in the lung and brain was determined to assess brain and pulmonary edema. Assessment of brain and lung water content was carried out as follows. At the end of treatment the animal was sacrificed and trachea was immediately tied, then the lungs were dissected out. The skull was opened and brain dissected out. Brain and lungs were rinsed with saline, and weighed (wet weight). The brain and lungs were kept for drying in an oven at a temperature of 60° C. for 72 hours, then weighed again (dry weight). The percent water content was calculated using the formula: [(wet weight−dry weight)/wet weight×100].
# as §1, §2, §3, §4
# [3] = tested on: intrathecal (IT) injection of ET-1 into rats; settings: pre-treatment, intrathecal ET-1 in rats; cited from earlier work
# [4] = tested on: rats induced with neurogenic pulmonary edema; settings: cited from earlier work
Compound,"plasma ET-1, Day 4 (pre tx) (rat model of DKA [1])",effect of treatment on plasma ET-1 level (rat model of DKA [1]),"plasma ET-1, Day 4 (end of tx) (rat model of DKA [1])",effect on lung water content (pulmonary edema) (rat model of DKA [2]),effect on brain water content (cerebral edema) (rat model of DKA [2]),effect on pulmonary edema [3],reduction of mortality rate [3],effect on hypoxia and hypercapnea [4]
"Cc1noc(NS(=O)(=O)c2cccc3c(N(C)C)cccc23)c1C [BMS-182874, (5-Dimethylamino)-N-(3,4-dimethyl-5-isoxazolyl)-1-naphthalene sulfonamide hydrochloride]",11.93 ± 2.01 pg/mL,did not significantly affect plasma ET-1 level,20.40 ± 3.23 pg/mL,restored lung water content,restored brain water content,,,
"CC(C)C[C@@H]1NC(=O)[C@@H](C(C)C)NC(=O)[C@@H]2CCCN2C(=O)[C@@H](CC(=O)O)NC(=O)[C@@H](Cc2c[nH]c3ccccc23)NC1=O [BQ123, Cyclo(D-Trp-D-Asp-Pro-D-Val-Leu)] (cyclo(L[dW][dD]P[dV]))",15.78 ± 4.11 pg/mL,did not significantly affect plasma ET-1 level,26.53 ± 5.52 pg/mL,restored lung water content,restored brain water content,prevented pulmonary edema,50%,ameliorated
"Insulin: Humulin® R (Regular human insulin, rDNA origin), infused with saline",11.76 ± 1.94 pg/mL,increased the plasma levels of ET-1,22.17 ± 2.67 pg/mL,restored lung water content,restored brain water content,,,
